Reference: US5672715A, “Herbicidal substituted 3-aryl-pyrazoles” (Monsanto Company, priority 1995, dated 1997)
Values joined by “and” are separate entries in the source; they are usually repeats but may differ in a detail not shown here. Equal values may be shown once.

Tests used:
Assay type in all cases: in vivo
[1] = tested on: Cocklebur; test: post-emergence herbicide test; details: Xanthium strumarium, post-emergence, 0.25 lb/A; read-out: % plant inhibition
Summary of the method: (§1)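 Herbicidal effect measured as percent inhibition of each plant species after spraying. Application: atomizer, 170.3 kPa, 1870 L/Ha, about 0.4% emulsifier, to plants aged two to three weeks in greenhouse soil pans.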

[2] = tested on: Common Chickweed; test: post-emergence herbicide test; details: post-emergence, 0.25 lb/A; read-out: % plant inhibition
Summary of the method: as §1

[3] = tested on: Giant Foxtail; test: post-emergence herbicide test; details: Setaria faberi, post-emergence, 0.25 lb/A; read-out: % plant inhibition
Summary of the method: as §1

[4] = tested on: Rape; test: post-emergence herbicide test; details: post-emergence, 0.25 lb/A; read-out: % plant inhibition
Summary of the method: as §1

[5] = tested on: Blackgrass; test: post-emergence herbicide test; details: Alopecurus myosuroides, post-emergence, 0.25 lb/A; read-out: % plant inhibition
Summary of the method: as §1

[6] = tested on: Green Foxtail; test: post-emergence herbicide test; details: Setaria viridis, post-emergence, 0.25 lb/A; read-out: % plant inhibition
Summary of the method: as §1

[7] = tested on: Wheat; test: post-emergence herbicide test; details: Triticum aestivum, post-emergence, 0.25 lb/A; read-out: % plant inhibition
Summary of the method: as §1

[8] = tested on: Velvetleaf; test: post-emergence herbicide test; details: Abutilon theophrasti, post-emergence, 0.25 lb/A; read-out: % plant inhibition
Summary of the method: as §1

[9] = tested on: Downy Brome; test: post-emergence herbicide test; details: Bromus tectorum, post-emergence, 0.25 lb/A; read-out: % plant inhibition
Summary of the method: as §1

[10] = tested on: Birdseye Speedwell; test: post-emergence herbicide test; details: post-emergence, 0.25 lb/A; read-out: % plant inhibition
Summary of the method: as §1

[11] = tested on: Soybean; test: post-emergence herbicide test; details: Glycine max, post-emergence, 0.25 lb/A; read-out: % plant inhibition
Summary of the method: as §1

[12] = tested on: Corn; test: post-emergence herbicide test; details: Zea mays, post-emergence, 0.25 lb/A; read-out: % plant inhibition
Summary of the method: as §1

[13] = tested on: Barnyardgrass; test: post-emergence herbicide test; details: Echinochloa crus-galli, post-emergence, 0.25 lb/A; read-out: % plant inhibition
Summary of the method: as §1

[14] = tested on: Wild Oats; test: post-emergence herbicide test; details: Avena fatua, post-emergence, 0.25 lb/A; read-out: % plant inhibition
Summary of the method: as §1

[15] = tested on: Bedstraw Catchweed; test: post-emergence herbicide test; details: Galium aparine, post-emergence, 0.25 lb/A; read-out: % plant inhibition
Summary of the method: as §1

[16] = tested on: Seedling Johnsongrass; test: post-emergence herbicide test; details: Sorghum halepense, post-emergence, 0.25 lb/A; read-out: % plant inhibition
Summary of the method: as §1

[17] = tested on: Morning Glory; test: post-emergence herbicide test; details: Ipomoea, post-emergence, 0.25 lb/A; read-out: % plant inhibition
Summary of the method: as §1

[18] = tested on: Cocklebur; test: pre-emergence herbicide test; details: 0.25 lb/A; for inhibition at 280.212 g/ha: Xanthium strumarium, pre-emergence, read-out: % plant inhibition
Summary of the method: (§2)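 Percent inhibition of emergence and growth was recorded roughly 14 days after seeding. Compound was incorporated into, or applied onto, a topsoil cover layer over seeds in pans kept in a greenhouse and watered from below.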

[19] = tested on: Common Chickweed; test: pre-emergence herbicide test; details: pre-emergence, 0.25 lb/A; read-out: % plant inhibition
Summary of the method: as §2

[20] = tested on: Giant Foxtail; test: pre-emergence herbicide test; details: Setaria faberi, pre-emergence, 0.25 lb/A; read-out: % plant inhibition
Summary of the method: as §2

[21] = tested on: Rape; test: pre-emergence herbicide test; details: pre-emergence, 0.25 lb/A; read-out: % plant inhibition
Summary of the method: as §2

[22] = tested on: Blackgrass; test: pre-emergence herbicide test; details: Alopecurus myosuroides, pre-emergence, 0.25 lb/A; read-out: % plant inhibition
Summary of the method: as §2

[23] = tested on: Green Foxtail; test: pre-emergence herbicide test; details: Setaria viridis, pre-emergence; 0.25 lb/A; read-out: % plant inhibition
Summary of the method: as §2

[24] = tested on: Wheat; test: pre-emergence herbicide test; details: Triticum aestivum, pre-emergence, 0.25 lb/A; read-out: % plant inhibition
Summary of the method: as §2

[25] = tested on: Velvetleaf; test: pre-emergence herbicide test; details: 0.25 lb/A; for inhibition at 280.212 g/ha: Abutilon theophrasti, pre-emergence, read-out: % plant inhibition
Summary of the method: as §2

[26] = tested on: Downy Brome; test: pre-emergence herbicide test; details: Bromus tectorum, pre-emergence, 0.25 lb/A; read-out: % plant inhibition
Summary of the method: as §2

[27] = tested on: Birdseye Speedwell; test: pre-emergence herbicide test; details: pre-emergence, 0.25 lb/A; read-out: % plant inhibition
Summary of the method: as §2

[28] = tested on: Soybean; test: pre-emergence herbicide test; details: Glycine max, pre-emergence, 0.25 lb/A; read-out: % plant inhibition
Summary of the method: as §2

[29] = tested on: Corn; test: pre-emergence herbicide test; details: 0.25 lb/A; for inhibition at 280.212 g/ha: Zea mays, pre-emergence, read-out: % plant inhibition
Summary of the method: as §2

[30] = tested on: Barnyardgrass; test: pre-emergence herbicide test; details: 0.25 lb/A; for inhibition at 280.212 g/ha: Echinochloa crus-galli, pre-emergence, read-out: % plant inhibition
Summary of the method: as §2

[31] = tested on: Wild Oats; test: pre-emergence herbicide test; details: Avena fatua, pre-emergence, 0.25 lb/A; read-out: % plant inhibition
Summary of the method: as §2

[32] = tested on: Bedstraw Catchweed; test: pre-emergence herbicide test; details: Galium aparine, pre-emergence, 0.25 lb/A; read-out: % plant inhibition
Summary of the method: as §2

[33] = tested on: Seedling Johnsongrass; test: pre-emergence herbicide test; details: Sorghum halepense, pre-emergence, 0.25 lb/A; read-out: % plant inhibition
Summary of the method: as §2

[34] = tested on: Morning Glory; test: pre-emergence herbicide test; details: 0.25 lb/A; for inhibition at 280.212 g/ha: Ipomoea, pre-emergence, read-out: % plant inhibition
Summary of the method: as §2

Cn1nc(-c2cc(C(=O)O)c(Cl)cc2F)c(C=O)c1C(F)(F)F [Compound 3, 2-Chloro-4-fluoro-5-[4-formyl-1-methyl-5-(trifluoromethyl)-1H-pyrazol-3-yl]benzoic acid]
65%: inhibition at 280.212 g/ha [1]
20%: inhibition at 280.212 g/ha [28]
25%: inhibition at 280.212 g/ha [2] | inhibition at 280.212 g/ha [17] | inhibition at 280.212 g/ha [25] | inhibition at 280.212 g/ha [33]
15%: inhibition at 280.212 g/ha [11] | inhibition at 280.212 g/ha [15] | inhibition at 280.212 g/ha [30]
75%: inhibition at 280.212 g/ha [10]
2%: inhibition at 280.212 g/ha [12]
10%: inhibition at 280.212 g/ha [4] | inhibition at 280.212 g/ha [6]
8%: inhibition at 280.212 g/ha [7]
0%: inhibition at 280.212 g/ha [3] | inhibition at 280.212 g/ha [5] | inhibition at 280.212 g/ha [9] | inhibition at 280.212 g/ha [13] | inhibition at 280.212 g/ha [16] | inhibition at 280.212 g/ha [19] | inhibition at 280.212 g/ha [24] | inhibition at 280.212 g/ha [26] | inhibition at 280.212 g/ha [27] | inhibition at 280.212 g/ha [29]
5%: inhibition at 280.212 g/ha [14] | inhibition at 280.212 g/ha [18] | inhibition at 280.212 g/ha [20] | inhibition at 280.212 g/ha [21] | inhibition at 280.212 g/ha [22] | inhibition at 280.212 g/ha [31] | inhibition at 280.212 g/ha [32]
60%: inhibition at 280.212 g/ha [34]
30%: inhibition at 280.212 g/ha [23]
85%: inhibition at 280.212 g/ha [8]

Cc1c(-c2ccc(Cl)cc2)nn(C)c1C(F)(F)F [Compound 7, 3-(4-chlorophenyl)-1,4-dimethyl-5-(trifluoromethyl)pyrazole]
35%: inhibition at 280.212 g/ha [15]
20%: inhibition at 280.212 g/ha [6]
0%: inhibition at 280.212 g/ha [1] | inhibition at 280.212 g/ha [2] | inhibition at 280.212 g/ha [3] | inhibition at 280.212 g/ha [4] | inhibition at 280.212 g/ha [12] | inhibition at 280.212 g/ha [13] | inhibition at 280.212 g/ha [16] | inhibition at 280.212 g/ha [17] | inhibition at 280.212 g/ha [18] | inhibition at 280.212 g/ha [19] | inhibition at 280.212 g/ha [21] | inhibition at 280.212 g/ha [22] | inhibition at 280.212 g/ha [23] | inhibition at 280.212 g/ha [24] | inhibition at 280.212 g/ha [25] | inhibition at 280.212 g/ha [26] | inhibition at 280.212 g/ha [27] | inhibition at 280.212 g/ha [28] | inhibition at 280.212 g/ha [29] | inhibition at 280.212 g/ha [30] | inhibition at 280.212 g/ha [31] | inhibition at 280.212 g/ha [34]
15%: inhibition at 280.212 g/ha [20]
25%: inhibition at 280.212 g/ha [33]
5%: inhibition at 280.212 g/ha [5] | inhibition at 280.212 g/ha [7] | inhibition at 280.212 g/ha [8] | inhibition at 280.212 g/ha [9] | inhibition at 280.212 g/ha [11] | inhibition at 280.212 g/ha [14] | inhibition at 280.212 g/ha [32]
65%: inhibition at 280.212 g/ha [10]

CC(C)OC(=O)c1cc(-c2nn(C)c(C(F)(F)F)c2C(F)F)c(F)cc1Cl [Compound 13, 2-Chloro-5-[4-(difluoromethyl)-1-methyl-5-(trifluoromethyl)-1H-pyrazol-3-yl]-4-fluorobenzoic acid, 1-methylethyl ester]
98%: inhibition at 280.212 g/ha [2] | inhibition at 280.212 g/ha [17] | inhibition at 280.212 g/ha [22] | % plant inhibition [25]
50% and 93%: % plant inhibition [34]
100%: inhibition at 280.212 g/ha [4] | inhibition at 280.212 g/ha [6] | inhibition at 280.212 g/ha [8] | inhibition at 280.212 g/ha [10] | inhibition at 280.212 g/ha [15] | inhibition at 280.212 g/ha [16] | inhibition at 280.212 g/ha [20] | inhibition at 280.212 g/ha [23] | inhibition at 280.212 g/ha [25] | inhibition at 280.212 g/ha [26] | inhibition at 280.212 g/ha [30] | inhibition at 280.212 g/ha [32] | inhibition at 280.212 g/ha [33]
95%: inhibition at 280.212 g/ha [1] | inhibition at 280.212 g/ha [3] | inhibition at 280.212 g/ha [5] | inhibition at 280.212 g/ha [31]
70%: inhibition at 280.212 g/ha [18]
80%: inhibition at 280.212 g/ha [29]
20%: inhibition at 280.212 g/ha [7]
90%: inhibition at 280.212 g/ha [9] | inhibition at 280.212 g/ha [11] | inhibition at 280.212 g/ha [13] | inhibition at 280.212 g/ha [14] | inhibition at 280.212 g/ha [19] | inhibition at 280.212 g/ha [27]
99%: % plant inhibition [30]
65%: inhibition at 280.212 g/ha [21] | % plant inhibition [29]
55%: inhibition at 280.212 g/ha [12]
3%: inhibition at 280.212 g/ha [24]
30%: inhibition at 280.212 g/ha [28]
75%: % plant inhibition [18]
